One assay addresses T1, Syk (Homo sapiens, UniProt P43405).
T1 construct: purchased Carna Biosciences
Put plainly: Syk HTRF assay. Type of assay: biochemical. The settings on record: IC50 activity level, read-out: Activity Level. Summed up: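 Read-out is the 665 nm/615 nm time-resolved fluorescence ratio after EDTA stop and Eu-anti-phosphotyrosine plus streptavidin-DyLight 647 detection. Reaction ran 1 h at room temperature with start mix of 87.5 μM ATP and 80 nM substrate peptide in pH 7.6 HEPES/MgCl2 buffer.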
With `Cn1c(=O)[nH]c2cc(Nc3nc4cccc(CC5CCOCC5)n4n3)ccc21` [Example 532, 1-methyl-5-(5-((tetrahydro-2H-pyran-4-yl)methyl)-[1,2,4]triazolo[1,5-a]pyridin-2-ylamino)-1H-benzo[d]imidazol-2(3H)-one], the IC50 is 0.005 to 250 nM. Same read-out and setting: the value for `Cn1c(=O)[nH]c2cc(Nc3nc4cccc(N[C@H]5CC[C@@H](O)CC5)n4n3)ccc21` [Example 570, cis-5-(5-(4-hydroxycyclohexylamino)-[1,2,4]triazolo[1,5-a]pyridin-2-ylamino)-1-methyl-1H-benzo[d]imidazol-2(3H)-one] was 0.005 to 250 nM; that for `CCN1CCC(Cc2cccc3nc(Nc4ccc(C(F)(F)F)cc4)nn23)CC1` [Example 407, 5-((1-ethylpiperidin-4-yl)methyl)-N-(4-(trifluoromethyl)phenyl)-[1,2,4]triazolo[1,5-a]pyridin-2-amine] was 500 to 1000 nM. As to `Cc1noc2cc(Nc3nc4cccc(CC5CCOCC5)n4n3)ccc12` [Example 537, 3-methyl-N-(5-((tetrahydro-2H-pyran-4-yl)methyl)-[1,2,4]triazolo[1,5-a]pyridin-2-yl)benzo[d]isoxazol-6-amine], the IC50 was in the range of 500 to 1000 nM.

Consider `O[C@H]1CC[C@@H](Nc2cccc3nc(Nc4ccc(-c5nc[nH]n5)cc4)nn23)CC1` [Example 567, cis-4-(2-(4-(1H-1,2,4-triazol-3-yl)phenylamino)-[1,2,4]triazolo[1,5-a]pyrridin-5-ylamino)cyclohexanol], for which the IC50 was in the range of 0.005 to 250 nM. Still for that read-out and setting: the value for `CN(c1ccccc1)c1cccc2nc(Nc3ccccc3)nn12` [Example 472, N^5-methyl-N^2,N^5-diphenyl-[1,2,4]triazolo[1,5-a]pyridin-2,5-diamine] was 1000 to 10000 nM; that for `OCc1nc2ccc(-c3cccc4nc(Nc5ccc(C(F)(F)F)cc5)nn34)cc2[nH]1` [Example 409, (6-(2-(4-(trifluoromethyl)phenylamino)-[1,2,4]triazolo[1,5-a]pyridin-5-yl)-1H-benzo[d]imidazol-2-yl)methanol] was 0.005 to 250 nM. Same read-out and setting: under `CC1(C)C(=O)Nc2cc(Nc3nc4cccc(C(F)(F)C5CCOCC5)n4n3)ccc21` [Example 536, 6-(5-(difluoro(tetrahydro-2H-pyran-4-yl)methyl)-[1,2,4]triazolo[1,5-a]pyridin-2-ylamino)-3,3-dimethylindolin-2-one] stands 0.005 to 250 nM. Still for that read-out and setting: under `Cc1ccc(Nc2nc3cccc(N[C@H]4CC[C@@H](O)CC4)n3n2)cn1` [Example 403, cis-4-(2-(6-methylpyridin-3-ylamino)-[1,2,4]triazolo[1,5-a]pyridin-5-ylamino)cyclohexanol] stands 0.005 to 250 nM; under `CN(C)c1cccc2nc(Nc3ccc4c(c3)NC(=O)C4(C)C)nn12` [Example 566, 6-(5-(dimethylamino)-[1,2,4]triazolo[1,5-a]pyridin-2-ylamino)-3,3-dimethylindolin-2-one], 0.005 to 250 nM. As for `c1ccc(Nc2nc3cccc(N[C@H]4CCCNC4)n3n2)cc1` [Example 507, (S)-N^2-phenyl-N^5-(piperidin-3-yl)-[1,2,4]triazolo[1,5-a]pyridin-2,5-diamine], the IC50 lay in the range of 0.005 to 250 nM.

`OC(Cc1cccc2nc(Nc3ccc(F)cc3)nn12)C1CCNCC1` (stereo not drawn) [Example 425, 2-(2-(4-fluorophenylamino)-[1,2,4]triazolo[1,5-a]pyridin-5-yl)-1-(piperidin-4-yl)ethanol]: the IC50 lay in the range of 1000 to 10000 nM. As for `OC1CCC(Nc2cccc3nc(Nc4ccccc4)nn23)CC1` (stereo in doubt) [Example 470, trans-4-(2-(phenylamino)-[1,2,4]triazolo[1,5-a]pyridin-5-ylamino)cyclohexanol], the IC50 was in the range of 1000 to 10000 nM. The same measure, in the same setting: under `CNC(=O)c1ccc(Nc2nc3cccc(NC4CCOCC4)n3n2)cc1` [Example 456, N-methyl-4-(5-(tetrahydro-2H-pyran-4-ylamino)-[1,2,4]triazolo[1,5-a]pyridin-2-ylamino)benzamide] stands 1000 to 10000 nM.

Still in this assay, the particulars now being: activity levels A-D, read-out: Activity Level (IC50 in the Syk HTRF assay).
For `O[C@H]1CC[C@@H](Nc2cccc3nc(Nc4ccc(F)c(F)c4)nn23)CC1` [Example 311, cis-4-(2-(3,4-difluorophenylamino)-[1,2,4]triazolo[1,5-a]pyridin-5-ylamino)cyclohexanol], the IC50 was 250 to 500 nM.

In the case of `NCCCOc1cccc2nc(Nc3ccc(C(F)(F)F)cc3)nn12` [Example 321, 5-(3-aminopropoxy)-N-(4-(trifluoromethyl)phenyl)-[1,2,4]triazolo[1,5-a]pyridin-2-amine], the IC50 lay in the range of 1000 to 10000 nM. Regarding `Cc1nn(C)c2cc(Nc3nc4cccc(N[C@H]5CC[C@@H](O)CC5)n4n3)ccc12` [Example 218, cis-4-(2-(1,3-dimethyl-1H-indazol-6-ylamino)-[1,2,4]triazolo[1,5-a]pyridin-5-ylamino)cyclohexanol], the IC50 fell in the range of 0.005 to 250 nM. Still for that read-out and setting: the value for `OC[C@@H]1CCCN1c1cccc2nc(Nc3ccc(C(F)(F)F)cc3)nn12` [Example 289, (S)-(1-(2-(4-(trifluoromethyl)phenylamino)-[1,2,4]triazolo[1,5-a]pyridin-5-yl)pyrrolidin-2-yl)methanol] was 1000 to 10000 nM; that for `OCCNc1cc(-c2cccc3nc(Nc4ccc(C(F)(F)F)cc4)nn23)ccn1` [Example 312, 2-(4-(2-(4-(trifluoromethyl)phenylamino)-[1,2,4]triazolo[1,5-a]pyridin-5-yl)pyridin-2-ylamino)ethanol] was 0.005 to 250 nM; that for `CNC(=O)c1ccc(Nc2nc3cccc(N[C@H]4CC[C@H](O)CC4)n3n2)cc1` (stereo in doubt) [Example 387, trans-4-(5-(4-hydroxycyclohexylamino)-[1,2,4]triazolo[1,5-a]pyridin-2-ylamino)-N-methylbenzamide] was 1000 to 10000 nM. As for `C[C@]1(O)CC[C@H](Nc2cccc3nc(Nc4ccc(C(F)(F)F)cc4)nn23)CC1` [Example 383, trans-1-methyl-4-(2-(4-(trifluoromethyl)phenylamino)-[1,2,4]triazolo[1,5-a]pyridin-5-ylamino)cyclohexanol], the IC50 is 500 to 1000 nM. On the same count and under the same terms, the value for `O=C1CN(Cc2cccc3nc(Nc4ccc(N5CCC(O)CC5)nc4)nn23)CCN1` [Example 221, 4-((2-(6-(4-hydroxypiperidin-1-yl)pyridin-3-ylamino)-[1,2,4]triazolo[1,5-a]pyridin-5-yl)methyl)piperazin-2-one] was 500 to 1000 nM.

In the case of `OC1CCC(Cc2cccc3nc(Nc4ccc(C(F)(F)F)cc4)nn23)CC1` (stereo in doubt) [Example 398, trans-4-((2-(4-(trifluoromethyl)phenylamino)-[1,2,4]triazolo[1,5-a]pyridin-5-yl)methyl)cyclohexanol], the IC50 was 0.005 to 250 nM.

The same assay, now with this note: read-out: Activity Level (Syk HTRF assay IC50).
As for `Oc1ccc2cc(Nc3nc4cccc(-c5ccccc5)n4n3)ccc2n1` [compound 26, 6-(5-phenyl-[1,2,4]triazolo[1,5-a]pyridin-2-ylamino)quinolin-2-ol], the IC50 was 0.005 to 250 nM. For `NCCNc1cc(Nc2nc3cccc(-c4ccccc4)n3n2)ccn1` [compound 39], the IC50 is 250 to 500 nM. Still for that read-out and setting: the value for `CNC(=O)c1ccc(Nc2nc3cccc(-c4cccc(-c5cnc[nH]5)c4)n3n2)cc1` [compound 7, 4-(5-(3-(1H-imidazol-5-yl)phenyl)-[1,2,4]triazolo[1,5-a]pyridin-2-ylamino)-N-methylbenzamide] was 0.005 to 250 nM; that for `CN1C(=O)Cc2ccc(Nc3nc4cccc(NC5CCOCC5)n4n3)cc21` [compound 119, 1-methyl-6-(5-(tetrahydro-2H-pyran-4-ylamino)-[1,2,4]triazolo[1,5-a]pyridin-2-ylamino)indolin-2-one] was 1000 to 10000 nM; that for `CN(c1cccc2nc(Nc3ccc4c(c3)NC(=O)C4(C)C)nn12)C1CCOC1` (stereo in doubt) [compound 121, (S)-3,3-dimethyl-6-(5-(methyl(tetrahydrofuran-3-yl)amino)-[1,2,4]triazolo[1,5-a]pyridin-2-ylamino)indolin-2-one] was 0.005 to 250 nM.

As to `N#Cc1cc(Nc2nc3cccc(-c4ccccc4)n3n2)ccn1` [compound 52], the IC50 fell in the range of 1000 to 10000 nM. Same read-out and setting: the value for `CNC(=O)c1ccc(Nc2nc3cccc(-c4ccccc4F)n3n2)cc1` [compound 21, 4-(5-(2-fluorophenyl)-[1,2,4]triazolo[1,5-a]pyridin-2-ylamino)-N-methylbenzamide] was 500 to 1000 nM. The same measure, in the same setting: under `COCCN1Cc2cc(Nc3nc4cccc(N[C@H]5CC[C@@H](O)CC5)n4n3)ccc2C1=O` [Example 174, cis-5-(5-(4-hydroxycyclohexylamino)-[1,2,4]triazolo[1,5-a]pyridin-2-ylamino)-2-(2-methoxyethyl)isoindolin-1-one] stands 0.005 to 250 nM. Still for that read-out and setting: the value for `Cc1cc(Nc2nc3cccc(NC4CCOCC4)n3n2)cc2c1C(C)(C)C(=O)N2` [compound 125, 3,3,4-trimethyl-6-(5-(tetrahydro-2H-pyran-4-ylamino)-[1,2,4]triazolo[1,5-a]pyridin-2-ylamino)indolin-2-one] was 0.005 to 250 nM; that for `CN1Cc2cc(Nc3nc4cccc(N[C@H]5CC[C@@H](O)CC5)n4n3)ccc2C1=O` [Example 135, cis-5-(5-(4-hydroxycyclohexylamino)-[1,2,4]triazolo[1,5-a]pyridin-2-ylamino)-2-methylisoindolin-1-one] was 0.005 to 250 nM; that for `Cc1n[nH]c2ccc(Nc3nc4cccc(NC5CCOCC5)n4n3)cc12` [compound 117] was 500 to 1000 nM. Turning to `Cc1nn(CCO)c2cc(Nc3nc4cccc(N[C@H]5CC[C@@H](O)CC5)n4n3)ccc12` [Example 191, cis-4-(2-(1-(2-hydroxyethyl)-3-methyl-1H-indazol-6-ylamino)-[1,2,4]triazolo[1,5-a]pyridin-5-ylamino)cyclohexanol], the IC50 was 0.005 to 250 nM. Still for that read-out and setting: the value for `CN(C)Cc1nc2ccc(Nc3nc4cccc(-c5cccc(F)c5)n4n3)cc2[nH]1` [compound 1, N-(2-((dimethylamino)methyl)-1H-benzo[d]imidazol-6-yl)-5-(3-fluorophenyl)-[1,2,4]triazolo[1,5-a]pyridin-2-amine] was 0.005 to 250 nM.

Values taken from patent US8299056B2 (Signal Pharmaceuticals, LLC, priority 2008, dated 2012).
